Format in all cases: physicochemical
A short description of data set [1]: Fluorescence emission spectra and fluorescence quantum yield. As to conditions: for fluorescence emission λmax: 50 mM sodium tetraborate buffer pH 9.8; for fluorescence quantum yield φ: alkaline fluorescein as reference. How it is done: (§1) Standard UV-visible and fluorescence spectra were recorded in 50 mM sodium tetraborate buffer pH 9.8 at 0.5-10 μM fluorescent compounds concentration. The fluorescence quantum yield of the fluorescent compounds was determined as described by Adamczyk et al. (previously cited) using alkaline solution of fluorescein as a reference (φ=0.92) (Lohse et al.; Adamczyk et al.; Klonis et al. and Martin et al., all previously cited).

The nature of data set [2]: UV-visible absorbance spectra. The note with it: for absorbance maximum (longer wavelength) / absorbance maximum (shorter wavelength): 50 mM sodium tetraborate buffer pH 9.8; for molar extinction coefficient: at 456 nm. How it is done:
as §1

A short description of data set [3]: pH effect on fluorescence. The note with it: range of pH 4.0-10.0; λexc 488 nm/λem 515 nm. How it is done: To measure the pH effect on fluorescence, 50 nM of fluorescent compounds k) (dye 15) or l) (dye 16) solution in 50 mM sodium tetraborate buffer (pH 9.8) was slowly titrated with HCl, aliquots were taken between pH 9.8 and 4, and fluorescence was measured at λexc 488 nm/λem 515 nm.

The nature of data set [4]: Stability of 2'-ester toward alkaline hydrolysis. The note with it: several hours in aqueous pH 9.8 buffer. The source says: This is explained by the absence of ionic equilibrium in 3-O-alkyl fluorescein derivatives trapped in a tautomeric quinoid form by 2′-esterification. The stability of 2′-ester toward an alkaline hydrolysis was also checked by following the absorbance and fluorescence spectra.

A short description of data set [5]: Dye photostability (photobleaching) study under fluorescence microscope. As to conditions: after 6 min of irradiation. How it is done: Super-Teflon glass slides (VWR International) carrying 40 circular wells of 2 mm diameter, separated by 30 μm-thick Teflon coating were used in dye photostability study. A well was filled with 1 μl of 5 mM fluorescein compounds k) (dye 15) or 1) (dye 16) solution in 50 mM sodium tetraborate buffer pH 9.8 and was enclosed with a coverslip.
The entire well volume was irradiated under the microscope with standard “fluorescein” filters set. The intensity delivered by the source on the surface of the slide was measured with a COHERENT LaserCheck probe, and found to be ˜6 mW/cm^2 at 488 nm. Well images were recorded regularly with IMSTAR software and mean fluorescence intensity was calculated.
For comparison of the photostability of fluorophores under the condition of signal acquisition with fluorescent microscope, the sample was placed in a well on the surface of a glass slide that contains 40 circular wells of 2 mm diameter, separated by 30 μm-thick Teflon coating. The well was then enclosed with a coverslip producing a cylindrical sample chamber of ˜380 nl volume. […] The resulted light intensity at the chamber level was measured to be ˜6 mW/mm^2. At different times the fluorescence images of the well were taken and mean fluorescence intensity was calculated using IMSTAR software (Khomyakova et al., previously cited).

SMILES strings stand for the structures.

The values below come from US20080275215A1, “Fluorescein-Based Compounds And Their Use For Peptide Synthesis” (COMMISSARIAT A L'ENERGIE ATOMIQUE, priority 2005, published 2008).

As to `CCOC(=O)c1ccc(NC(C)=O)cc1-c1c2ccc(=O)cc-2oc2cc(OCC(=O)O)ccc12` [l), 4-acetylamino-2-(6-carboxymethoxy-3-oxo-3H-xanthen-9-yl)-benzoic acid ethyl ester], in data set [1], the “fluorescence emission λmax” value came to 520 nm and the “fluorescence quantum yield φ” value is 0.18. Moreover, in data set [2], the “absorbance maximum (longer wavelength)” value is given as 481 nm, the “absorbance maximum (shorter wavelength)” value stood at 456 nm and the molar extinction coefficient stood at 23000 L/mol/cm. For the same molecule, the “pH-dependence of fluorescence and quantum yield” value in data set [3] is reported as “virtually pH-independent”. For the same molecule, the “changes in absorbance and fluorescence spectra (2'-ester alkaline hydrolysis)” value in data set [4] is given as “No significant changes”. In addition, the decrease in fluorescence in data set [5] is listed as approximately 10%.

In the case of `CCOC(=O)c1cc(NC(C)=O)ccc1-c1c2ccc(=O)cc-2oc2cc(OCC(=O)O)ccc12` [k), 5-acetylamino-2-(6-carboxymethoxy-3-oxo-3H-xanthen-9-yl)-benzoic acid ethyl ester], in data set [1], the “fluorescence emission λmax” value stood at 520 nm and the “fluorescence quantum yield φ” value amounted to 0.19. Moreover, in data set [2], the “absorbance maximum (longer wavelength)” value is given as 481 nm, the “absorbance maximum (shorter wavelength)” value is reported as 456 nm and the molar extinction coefficient came to 22000 L/mol/cm. Besides, the “pH-dependence of fluorescence and quantum yield” value in data set [3] was “virtually pH-independent”. Also, the “changes in absorbance and fluorescence spectra (2'-ester alkaline hydrolysis)” value in data set [4] is recorded as “No significant changes”. Further, the decrease in fluorescence in data set [5] is recorded as approximately 10%.
